Experimental data published in US20070134355A1, “Use of plant parts of prickly pear (opuntia) and/or extracts therefrom for the treatment of depressions” (priority 2003, published 2007).
“And” between values parts separate entries of the source, which are not always exact repeats. Identical values can stand only once.

System: rats
Experiment: forced swimming test in rats
Type: in vivo, rat
Details: percentage of inhibition against the control group
Description: The antidepressive efficacy has been tested by means of the so-called “forced swimming test” in rats. In this test rats are brought into an impasse during a defined period of five minutes (glass cylinder filled with water). In this test the rats reacted with a rigour referred to as immobilization time, which is interpreted to correlate with a depression. If the rats are treated with an antidepressively effective medicament prior to the test, the immobilization time decreases. Since other psychopharamaca such as anxiolytics or neuroleptics are not efficacious in this test, this test system is well suitable to detect antidepressive effects (R. D. Porsolt et al., Eur. J. Pharmacol. 47, 379-391 (1978); R. D. Porsolt et al., Adv. Pharmacol. Sci., 137-159 (1991)). In order to be efficacious, each of the heretofore known antidepressive agents has to be administered over a period of several days in this test, like in the case of patients. The test animals were treated either with the test substance or with a solvent only for control purposes or with the tricyclic antidepressive agent Imipramine in order to compare the efficacy. Imipramine was selected as the standard comparative substance, because it is one of the strongest antidepressive agents both in psychiatric practice and in animal model.
Tables 1 to 3 exemplarily show the efficacy of three different Opuntia extracts compared to the tricyclic antidepressive agent Imipramine as determined after a treatment period of 9 days. […] In this case, the inhibition was determined already after a treatment period of 3 days. For comparison purposes, the inhibition of the immobility was represented as the percentage of inhibition against the control group in each of the tables.

CN(C)CCCN1c2ccccc2CCc2ccccc21 [Imipramine]
Inhibition of immobility (dose 20 mg/kg, treatment period of 9 days): 44%
Inhibition of immobility (dose 30 mg/kg, treatment period of 9 days, 30 mg/kg): 64% and 68%

COc1ccc(C(CN(C)C)C2(O)CCCCC2)cc1 (stereo not drawn) [Venlafaxine]
Inhibition of immobility (dose 100 mg/kg, treatment period of 3 days): 25%
